Measured values published in ChEMBL document CHEMBL4706508, “Discovery of first-in-class multi-target adenosine A receptor antagonists-carbonic anhydrase IX and XII inhibitors. 8-Amino-6-aryl-2-phenyl-1,2,4-triazolo [4,3-a]pyrazin-3-one derivatives as new potential antitumor agents” (Eur J Med Chem, 2020).

Columns and labels:
Carbonic anhydrase 1 = Carbonic anhydrase 1 (Homo sapiens, UniProt P00915); experiment: Inhibition of human CA1 incubated for 15 mins by stopped- flow CO2 hydrase assay method
Carbonic anhydrase 9 = Carbonic anhydrase 9 (Homo sapiens, UniProt Q16790); experiment: Inhibition of human CA9 incubated for 15 mins by stopped- flow CO2 hydrase assay method
Adenosine receptor A2b = molecular target: T1, Adenosine receptor A2b (Homo sapiens, UniProt P29275); experiment: Antagonist activity at human A2B receptor expressed in CHO cell membrane assessed as reduction in NECA-[…] level by GloSensor CAMP assay; assay type: cell membranes
T1 sequence (P29275 whole entry): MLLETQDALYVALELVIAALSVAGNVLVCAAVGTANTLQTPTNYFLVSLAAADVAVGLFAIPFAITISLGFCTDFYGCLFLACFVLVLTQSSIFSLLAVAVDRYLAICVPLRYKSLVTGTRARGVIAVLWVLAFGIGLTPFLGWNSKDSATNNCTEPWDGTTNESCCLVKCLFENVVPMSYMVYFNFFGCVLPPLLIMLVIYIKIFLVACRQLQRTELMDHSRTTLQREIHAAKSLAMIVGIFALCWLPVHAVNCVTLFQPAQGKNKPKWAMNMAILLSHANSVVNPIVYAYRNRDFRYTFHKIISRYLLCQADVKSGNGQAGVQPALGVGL

Carbonic anhydrase 2 = Carbonic anhydrase 2 (Homo sapiens, UniProt P00918); experiment: Inhibition of human CA2 incubated for 15 mins by stopped- flow CO2 hydrase assay method
Adenosine receptor A3 = molecular target: T2, Adenosine receptor A3 (Homo sapiens, UniProt P0DMS8); experiment: Displacement of [3H]-HEMADO from human A3 receptor stably expressed in CHO cell membranes by radioligand competitive binding assay; parameters: species or system Cell membrane
T2 sequence (P0DMS8 whole entry): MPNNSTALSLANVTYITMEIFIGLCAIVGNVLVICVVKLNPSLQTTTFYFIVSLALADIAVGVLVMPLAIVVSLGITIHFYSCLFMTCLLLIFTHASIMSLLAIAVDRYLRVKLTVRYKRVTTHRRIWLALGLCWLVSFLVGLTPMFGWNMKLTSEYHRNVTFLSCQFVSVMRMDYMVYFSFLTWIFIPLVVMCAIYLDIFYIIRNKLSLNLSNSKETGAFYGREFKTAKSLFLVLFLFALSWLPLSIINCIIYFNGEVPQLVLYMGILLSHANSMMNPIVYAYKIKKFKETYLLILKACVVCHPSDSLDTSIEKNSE

Adenosine receptor A2a = Adenosine receptor A2a (Homo sapiens, UniProt P29274); experiment: Displacement of [3H]-NECA from human A2A receptor stably expressed in CHO cell membranes by radioligand competitive binding assay; parameters: species or system Cell membrane
Adenosine receptor A1 = molecular target: T3, Adenosine receptor A1 (Homo sapiens, UniProt P30542); experiment: Displacement of [3H]-CCPA from human A1 receptor stably expressed in CHO cell membranes by radioligand competitive binding assay; parameters: species or system Cell membrane
T3 sequence (P30542 whole entry): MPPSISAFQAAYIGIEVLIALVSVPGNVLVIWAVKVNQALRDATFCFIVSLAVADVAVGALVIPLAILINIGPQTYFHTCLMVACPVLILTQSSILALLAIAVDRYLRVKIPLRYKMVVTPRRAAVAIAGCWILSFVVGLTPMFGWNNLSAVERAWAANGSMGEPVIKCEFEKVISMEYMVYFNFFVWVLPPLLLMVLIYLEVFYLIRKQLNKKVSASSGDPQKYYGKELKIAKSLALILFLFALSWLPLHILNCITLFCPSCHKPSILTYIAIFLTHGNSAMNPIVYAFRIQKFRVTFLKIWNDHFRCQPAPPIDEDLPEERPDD

Carbonic anhydrase 12 = Carbonic anhydrase 12 (Homo sapiens, UniProt O43570); experiment: Inhibition of human CA12 incubated for 15 mins by stopped- flow CO2 hydrase assay method
Sequence of Carbonic anhydrase 12 (O43570 whole entry): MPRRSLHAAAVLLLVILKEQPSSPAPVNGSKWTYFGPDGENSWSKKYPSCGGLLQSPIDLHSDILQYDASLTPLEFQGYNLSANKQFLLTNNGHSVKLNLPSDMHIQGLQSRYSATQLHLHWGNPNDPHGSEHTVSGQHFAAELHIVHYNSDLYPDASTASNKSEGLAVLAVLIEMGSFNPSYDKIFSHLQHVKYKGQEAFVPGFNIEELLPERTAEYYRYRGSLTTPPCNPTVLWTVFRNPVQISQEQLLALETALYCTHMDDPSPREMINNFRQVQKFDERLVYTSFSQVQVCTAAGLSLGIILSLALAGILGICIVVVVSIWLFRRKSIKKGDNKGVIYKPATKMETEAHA

Sequence of Adenosine receptor A2a (P29274 whole entry): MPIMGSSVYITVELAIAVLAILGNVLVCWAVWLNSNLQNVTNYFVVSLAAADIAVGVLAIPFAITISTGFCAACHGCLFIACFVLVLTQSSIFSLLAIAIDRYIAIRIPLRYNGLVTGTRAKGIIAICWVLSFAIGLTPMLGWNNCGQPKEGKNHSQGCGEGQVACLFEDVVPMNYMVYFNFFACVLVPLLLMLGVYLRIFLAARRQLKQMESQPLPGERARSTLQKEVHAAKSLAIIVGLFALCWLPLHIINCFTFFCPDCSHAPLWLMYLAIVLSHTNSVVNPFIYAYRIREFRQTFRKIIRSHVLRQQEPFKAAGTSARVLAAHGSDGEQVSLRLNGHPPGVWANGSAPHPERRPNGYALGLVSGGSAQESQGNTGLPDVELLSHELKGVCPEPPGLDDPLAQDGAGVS
Sequence of Carbonic anhydrase 1 (P00915 whole entry): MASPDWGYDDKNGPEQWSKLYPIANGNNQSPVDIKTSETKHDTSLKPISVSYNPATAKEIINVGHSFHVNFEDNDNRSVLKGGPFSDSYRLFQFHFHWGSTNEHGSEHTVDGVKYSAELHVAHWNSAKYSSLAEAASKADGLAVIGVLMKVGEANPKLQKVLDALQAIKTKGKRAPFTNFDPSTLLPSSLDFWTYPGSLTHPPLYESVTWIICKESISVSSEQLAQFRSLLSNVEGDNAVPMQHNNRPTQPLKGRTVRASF

| Compound | Ki (Carbonic anhydrase 1) [nM] | Ki (Carbonic anhydrase 9) [nM] | IC50 (Adenosine receptor A2b) [nM] | Ki (Carbonic anhydrase 2) [nM] | Ki (Adenosine receptor A3) [nM] | Ki (Adenosine receptor A2a) [nM] | Ki (Adenosine receptor A1) [nM] | Ki (Carbonic anhydrase 12) [nM] |
| --- | --- | --- | --- | --- | --- | --- | --- | --- |
| Nc1nc(-c2cccc(O)c2)cn2c(=O)n(-c3ccccc3)nc12 | > 100000 | > 100000 | > 30000 | 93000 |  |  |  | > 100000 |
| Nc1nc(-c2ccc(NC(=O)CCNCCc3ccc(S(N)(=O)=O)cc3)cc2)cn2c(=O)n(-c3ccccc3)nc12 | 8710 | 109 | > 30000 | 526 | 5830 | 10.6 | 1030 | 0.263 |
| Nc1nc(-c2ccc(O)cc2)cn2c(=O)n(-c3ccccc3)nc12 | > 100000 | > 100000 | > 30000 | > 100000 |  |  |  | > 100000 |
| Nc1nc(-c2ccc(NCc3ccc(S(N)(=O)=O)cc3)cc2)cn2c(=O)n(-c3ccccc3)nc12 | 570 | 5970 | > 30000 | 897 | > 30000 | 27.9 | 87.7 | 625 |
| Nc1nc(-c2ccc(NC(=O)CCNC(=O)c3cccc(S(N)(=O)=O)c3)cc2)cn2c(=O)n(-c3ccccc3)nc12 | 7280 | 6920 | > 30000 | 341 | > 30000 | 9.2 | 418 | 830 |
| Nc1nc(-c2ccc(OCCNCCc3ccc(S(N)(=O)=O)cc3)cc2)cn2c(=O)n(-c3ccccc3)nc12 | 973 | 9460 | > 30000 | 934 | 7010 | 87.9 | 283 | 795 |
| CN(C)c1nc(-c2ccc(S(N)(=O)=O)cc2)cn2c(=O)n(-c3ccccc3)nc12 | 2090 | 6730 | > 30000 | 464 | 19500 | 3890 | 435 | 358 |
| Nc1nc(-c2ccc(NC(=O)CCNCc3ccc(S(N)(=O)=O)cc3)cc2)cn2c(=O)n(-c3ccccc3)nc12 | 9000 | 319 | > 30000 | 6760 | > 30000 | 96.3 | 839 | 41.5 |
| Nc1nc(-c2ccccc2O)cn2c(=O)n(-c3ccccc3)nc12 | > 100000 | > 100000 | > 30000 | 19000 |  |  |  | > 100000 |
| CCOC(=O)CNc1ccc(-c2cn3c(=O)n(-c4ccccc4)nc3c(N)n2)cc1 | > 100000 | > 100000 | > 30000 | > 100000 | > 30000 | 6300 | 771 | > 100000 |
| Nc1nc(-c2ccc(OCCNC(=O)c3ccc(S(N)(=O)=O)cc3)cc2)cn2c(=O)n(-c3ccccc3)nc12 | 934 | 5950 | > 30000 | 183 | 6650 | 6.8 | 420 | 528 |
| Nc1nc(-c2ccc(S(N)(=O)=O)cc2)cn2c(=O)n(-c3ccccc3)nc12 | 8020 | 8920 | > 30000 | 703 | 14800 | 857 | 205 | 602 |

More lines, now with the values ahead:

| Ki (Carbonic anhydrase 1) [nM] | Ki (Carbonic anhydrase 9) [nM] | IC50 (Adenosine receptor A2b) [nM] | Ki (Carbonic anhydrase 2) [nM] | Ki (Adenosine receptor A3) [nM] | Ki (Adenosine receptor A2a) [nM] | Ki (Adenosine receptor A1) [nM] | Ki (Carbonic anhydrase 12) [nM] | Compound |
| --- | --- | --- | --- | --- | --- | --- | --- | --- |
| > 100000 | > 100000 | > 30000 | > 100000 | 279 | 0.7 | 418 | > 100000 | COc1ccc(C(=O)Nc2ccc(-c3cn4c(=O)n(-c5ccccc5)nc4c(N)n3)cc2)cc1 |
| > 100000 | > 100000 | > 30000 | 47300 | 1070 | 41.2 | 194 | 4400 | Nc1nc(-c2ccc(NC(=O)c3ccc(O)cc3)cc2)cn2c(=O)n(-c3ccccc3)nc12 |
| > 100000 | > 100000 | > 30000 | 63000 | 546 | 36 | 395 | > 100000 | Nc1nc(-c2ccc(NC(=O)c3ccc(C(=O)NO)cc3)cc2)cn2c(=O)n(-c3ccccc3)nc12 |
| > 100000 | > 100000 | > 30000 | > 100000 | > 30000 | 81.2 | 2370 | > 100000 | Nc1nc(-c2ccc(NC(=O)c3ccc(C(=O)O)cc3)cc2)cn2c(=O)n(-c3ccccc3)nc12 |
| > 100000 | > 100000 | > 30000 | > 100000 | > 30000 | 20.6 | 98.8 | > 100000 | COc1ccc(C(=O)Nc2ccc(-c3cn4c(=O)n(-c5ccccc5)nc4c(N)n3)cc2)cc1OC |
| > 100000 | > 100000 | > 30000 | > 100000 | > 30000 | 1360 | 7480 | > 100000 | CCOC(=O)c1ccc(C(=O)Nc2ccc(-c3cn4c(=O)n(-c5ccccc5)nc4c(N)n3)cc2)cc1 |
| 8350 | 466 | > 30000 | 46 | > 30000 |  | 4190 | 6 | Nc1nc(-c2ccc(NC(=O)c3ccc(S(N)(=O)=O)cc3)cc2)cn2c(=O)n(-c3ccccc3)nc12 |
| 51.5 | 5 | > 30000 | 8.6 | > 30000 |  | 1070 | 27 | Nc1nc(-c2ccc(NC(=O)CCNC(=O)c3ccc(S(N)(=O)=O)cc3)cc2)cn2c(=O)n(-c3ccccc3)nc12 |
| 2290 | 810 | > 30000 | 367 | > 30000 | 13.5 | 1210 | 303 | Nc1nc(-c2ccc(NC(=O)c3cccc(S(N)(=O)=O)c3)cc2)cn2c(=O)n(-c3ccccc3)nc12 |
| > 100000 | > 100000 | > 30000 | > 100000 | 6960 | 573 | 2300 | > 100000 | Nc1nc(-c2ccc(NC(=O)CCC(=O)O)cc2)cn2c(=O)n(-c3ccccc3)nc12 |
| > 100000 | 44300 | > 30000 | 31700 | 1250 | 9 | 546 | > 100000 | Nc1nc(-c2ccc(NC(=O)c3ccc(O)c(O)c3)cc2)cn2c(=O)n(-c3ccccc3)nc12 |
| 589 | 9450 | > 30000 | 246 | 6760 | 26 | 131 | 25.7 | Nc1nc(-c2ccc(NCC(=O)c3ccc(S(N)(=O)=O)cc3)cc2)cn2c(=O)n(-c3ccccc3)nc12 |
